For the test, the target named is human orexin 2 receptor (Homo sapiens (Human), UniProt O43614). Briefly: Human orexin 2 receptor Ca2+ mobilization assay (FLIPR, PFSK cells, orexin B 100 nM). The test is classed as cell-based. As to conditions: modified Cheng-Prusoff correction, read-out: OR 2 Kb. How it is done: Human Orexin 2 Receptor Ca^2+ Mobilization Assay
Chain of human orexin 2 receptor (O43614 whole entry): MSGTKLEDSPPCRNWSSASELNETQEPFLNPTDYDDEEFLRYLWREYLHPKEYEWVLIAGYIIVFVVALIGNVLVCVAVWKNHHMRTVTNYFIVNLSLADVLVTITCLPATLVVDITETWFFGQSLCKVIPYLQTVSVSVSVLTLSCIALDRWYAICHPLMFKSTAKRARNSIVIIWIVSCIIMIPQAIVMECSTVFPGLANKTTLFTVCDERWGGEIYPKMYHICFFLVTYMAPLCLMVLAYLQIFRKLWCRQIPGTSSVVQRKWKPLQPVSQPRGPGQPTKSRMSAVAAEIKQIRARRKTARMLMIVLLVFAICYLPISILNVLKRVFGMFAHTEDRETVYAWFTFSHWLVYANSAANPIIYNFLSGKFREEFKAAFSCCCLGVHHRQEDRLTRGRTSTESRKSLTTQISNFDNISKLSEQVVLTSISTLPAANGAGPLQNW
Cells were seeded on to 96-well Packard viewplates at a density of 50,000 cells/well and incubated overnight at 37° C., 5% CO2. The cells were dye-loaded with 4 μM Ca^2+ dye Fluo-3AM in serum-free DMEM/F-12 with 2.5 mM probenecid and incubated at 37° C., 5% CO2 for one hour. Cells were pre-incubated with compounds (diluted in DMEM/F-12) for 30 minutes before agonist (orexin B, 100 nM) stimulation. Ligand-induced Ca^2+ release was measured using a Fluorometric Imaging Plate Reader (FLIPR, Molecular Devices, Sunnyvale, Calif.). Functional responses were measured as peak fluorescence intensity minus basal. The concentration of agonist that produced a half-maximal response is represented by the EC50 value. Antagonistic potency values were converted to apparent pKB values using a modified Cheng-Prusoff correction. Apparent pKB=−log IC50/1+[conc agonist/EC50]. Data are expressed as mean±S.E.M, the designation of NT means not tested.
For orientation: A change in cytosolic calcium serves as a functional read-out for many receptors and channels.
Regarding `Cc1cc(N2CC3CN(C(=O)c4ccccc4-n4nccn4)CC3C2)nc(N(C)C)n1` (stereo not shown) [Example 120, N,N,4-Trimethyl-6-[5-{[2-(2H-1,2,3-triazol-2-yl)phenyl]carbonyl}hexahydropyrrolo[3,4-c]pyrrol-2(1H)-yl]pyrimidin-2-amine], the Kb was determined as 13 nM.
Take `CN(C)c1nc(N2CC3CN(C(=O)c4ccccc4-n4nccn4)CC3C2)cc(C(F)(F)F)n1` (stereo not shown) [Example 121, N,N-Dimethyl-4-[5-{[2-(2H-1,2,3-triazol-2-yl)phenyl]carbonyl}hexahydropyrrolo[3,4-c]pyrrol-2(1H)-yl]-6-(trifluoromethyl)pyrimidin-2-amine]: the Kb was 13 nM.
Turning to `Cc1ccc(-n2nccn2)c(C(=O)N2CC3CN(c4nc(C)cnc4C)CC3C2)c1` (stereo not shown) [Example 123, [5-(3,6-Dimethyl-pyrazin-2-yl)-hexahydro-pyrrolo[3,4-c]pyrrol-2-yl]-(5-methyl-2-[1,2,3]triazol-2-yl-phenyl)-methanone], the Kb amounted to 79 nM.
On to `CCOc1ccc2ccccc2c1C(=O)N1CC2CN(c3nccc(-c4ccccc4)n3)CC2C1` (stereo not shown) [Example 126, 2-[(2-Ethoxynaphthalen-1-yl)carbonyl]-5-(4-phenylpyrimidin-2-yl)octahydro pyrrolo[3,4-c]pyrrole], for which the Kb was found to be 100 nM.
For the molecule `Cc1ccc(-n2nccn2)c(C(=O)N2CC3CN(c4nccc(-c5ccccc5)n4)CC3C2)c1` (stereo not shown) [Example 127, 2-{[5-Methyl-2-(2H-1,2,3-triazol-2-yl)phenyl]carbonyl}-5-(4-phenylpyrimidin-2-yl)octahydropyrrolo[3,4-c]pyrrole], the Kb was 20 nM.
For the molecule `COc1cc(OC)nc(N2CC3CN(C(=O)c4cc(C)ccc4-n4nccn4)CC3C2)n1` (stereo not shown) [Example 129, 2-(4,6-Dimethoxypyrimidin-2-yl)-5-{[5-methyl-2-(2H-1,2,3-triazol-2-yl)phenyl]carbonyl}octahydropyrrolo[3,4-c]pyrrole], the Kb stood at 100 nM.
As for `O=C(c1ccccc1-n1nccn1)N1CC2CN(c3nccc(-c4ccccc4)n3)CC2C1` (stereo not shown) [Example 131, 2-(4-Phenylpyrimidin-2-yl)-5-{[2-(2H-1,2,3-triazol-2-yl)phenyl]carbonyl}octahydro pyrrolo[3,4-c]pyrrole], the Kb was 79 nM.
Take `Cc1cc(C)nc(N2CC3CN(C(=O)c4nc(C)sc4-c4ccccc4F)CC3C2)n1` (stereo not shown) [Example 132, 2-(4,6-Dimethylpyrimidin-2-yl)-5-{[5-(2-fluorophenyl)-2-methyl-1,3-thiazol-4-yl]carbonyl}octahydropyrrolo[3,4-c]pyrrole]: the Kb turned out to be 79 nM.
Regarding `Cc1cccc(N2CC3CN(C(=O)c4ccccc4-c4cccs4)CC3C2)n1` (stereo not shown) [Example 134, 2-(6-Methylpyridin-2-yl)-5-[(2-thiophen-2-ylphenyl)carbonyl]octahydropyrrolo[3,4-c]pyrrole], the Kb was found to be 12 nM.
For the molecule `Cc1ccnc(N2CC3CN(C(=O)c4ccccc4-n4nccn4)CC3C2)n1` (stereo not shown) [Example 135, 2-(4-Methylpyrimidin-2-yl)-5-{[2-(2H-1,2,3-triazol-2-yl)phenyl]carbonyl}octahydro pyrrolo[3,4-c]pyrrole], the Kb worked out at 40 nM.
Take `Cc1ccnc(N2CC3CN(C(=O)c4ccccc4-c4cccs4)CC3C2)c1` (stereo not shown) [Example 136, 2-(4-Methylpyridin-2-yl)-5-[(2-thiophen-2-ylphenyl)carbonyl]octahydropyrrolo[3,4-c]pyrrole]: the Kb was found to be 50 nM.
In the case of `COc1cccc(N2CC3CN(C(=O)c4ccccc4-c4cccs4)CC3C2)n1` (stereo not shown) [Example 137, 2-(6-Methoxypyridin-2-yl)-5-[(2-thiophen-2-ylphenyl)carbonyl]octahydro pyrrolo[3,4-c]pyrrole] it was 25 nM.
On to `COc1cc(OC)nc(N2CC3CN(C(=O)c4ccccc4-c4cccs4)CC3C2)n1` (stereo not shown) [Example 138, 2-(4,6-Dimethoxypyrimidin-2-yl)-5-[(2-thiophen-2-ylphenyl)carbonyl]octahydro pyrrolo[3,4-c]pyrrole], for which the Kb turned out to be 40 nM.
For the molecule `O=C(c1ccccc1-c1cccs1)N1CC2CN(c3nc4ccccc4o3)CC2C1` (stereo not shown) [Example 139, 2-{5-[(2-Thiophen-2-ylphenyl)carbonyl]hexahydropyrrolo[3,4-c]pyrrol-2(1H)-yl}-1,3-benzoxazole], the Kb turned out to be 63 nM.
`O=C(c1ccccc1-n1nccn1)N1CC2CN(c3nccc(-c4cccs4)n3)CC2C1` (stereo not shown) [Example 143, 2-(4-Thiophen-2-ylpyrimidin-2-yl)-5-{[2-(2H-1,2,3-triazol-2-yl)phenyl]carbonyl}octahydropyrrolo[3,4-c]pyrrole]: the Kb came out at 79 nM.
Take `O=C(c1ccccc1-n1nccn1)N1CC2CN(c3nc4ccccc4o3)CC2C1` (stereo not shown) [Example 144, 2-[5-{[2-(2H-1,2,3-Triazol-2-yl)phenyl]carbonyl}hexahydropyrrolo[3,4-c]pyrrol-2(1H)-yl]-1,3-benzoxazole]: the Kb was 63 nM.
On to `CCOc1ccc2ccccc2c1C(=O)N1CC2CN(c3cnc4ccccc4n3)CC2C1` (stereo not shown) [Example 145, 2-{5-[(2-Ethoxynaphthalen-1-yl)carbonyl]hexahydropyrrolo[3,4-c]pyrrol-2(1H)-yl}quinoxaline], for which the Kb stood at 32 nM.
As for `O=C(c1cc(F)ccc1-c1ncccn1)N1CC2CN(c3cnc4ccccc4n3)CC2C1` (stereo not shown) [Example 146, 2-{5-[(5-Fluoro-2-pyrimidin-2-ylphenyl)carbonyl]hexahydropyrrolo[3,4-c]pyrrol-2(1H)-yl}quinoxaline], the Kb was found to be 16 nM.
Take `CCOc1cccc(N2CC3CN(C(=O)c4ccccc4-n4nccn4)CC3C2)n1` (stereo not shown) [Example 147, 2-(6-Ethoxypyridin-2-yl)-5-{[2-(2H-1,2,3-triazol-2-yl)phenyl]carbonyl}octahydro pyrrolo[3,4-c]pyrrole]: the Kb worked out at 63 nM.
For the molecule `COc1ccnc(N2CC3CN(C(=O)c4cc(F)ccc4-c4ncccn4)CC3C2)n1` (stereo not shown) [Example 150, 2-[(5-Fluoro-2-pyrimidin-2-ylphenyl)carbonyl]-5-(4-methoxypyrimidin-2-yl)octahydropyrrolo[3,4-c]pyrrole], the Kb is 40 nM.
In the case of `O=C(c1ccccc1-n1nccn1)N1CC2CN(c3nccc(C(F)(F)F)n3)CC2C1` (stereo not shown) [Example 153, 2-{[2-(2H-1,2,3-Triazol-2-yl)phenyl]carbonyl}-5-[4-(trifluoromethyl)pyrimidin-2-yl]octahydropyrrolo[3,4-c]pyrrole] it was 40 nM; in that of `Cc1cnc(C)c(N2CC3CN(C(=O)c4ccccc4-n4nccn4)CC3C2)n1` (stereo not shown) [Example 155, 2-(3,6-Dimethylpyrazin-2-yl)-5-{[2-(2H-1,2,3-triazol-2-yl)phenyl]carbonyl}octa hydropyrrolo[3,4-c]pyrrole], 16 nM.
Regarding `COc1ccnc(N2CC3CN(C(=O)c4ccccc4-n4nccn4)CC3C2)n1` (stereo not shown) [Example 156, 2-(4-Methoxypyrimidin-2-yl)-5-{[2-(2H-1,2,3-triazol-2-yl)phenyl]carbonyl}octa hydropyrrolo[3,4-c]pyrrole], the Kb was determined as 16 nM.
`Cc1cncc(N2CC3CN(C(=O)c4ccc(F)cc4-n4nccn4)CC3C2)n1` (stereo not shown) [Example 158, 2-{[4-Fluoro-2-(2H-1,2,3-triazol-2-yl)phenyl]carbonyl}-5-(6-methylpyrazin-2-yl)octahydropyrrolo[3,4-c]pyrrole]: the Kb turned out to be 8 nM.
In the case of `COc1ccnc(N2CC3CN(C(=O)c4ccc(F)cc4-n4nccn4)CC3C2)n1` (stereo not shown) [Example 159, 2-{[4-Fluoro-2-(2H-1,2,3-triazol-2-yl)phenyl]carbonyl}-5-(4-methoxypyrimidin-2-yl)octahydropyrrolo[3,4-c]pyrrole] it was 8 nM.

Values taken from patent publication US9586962B2, “Disubstituted octahydropyrrolo [3,4-C] pyrroles as orexin receptor modulators” (Janssen Pharmaceutica NV, priority 2011, dated 2017).
